Experiments:
Human BACE-1 = Human BACE-1 (Homo sapiens (Human), UniProt P56817); assay: Test 1: Inhibition of Human BACE-1; assay type: biochemical; conditions: recombinant BACE-1, pH 4.5, 1 hour preincubation
Procedure: Test 1: Inhibition of Human BACE-1
(§1) Recombinant BACE-1 (extracellular domain, expressed in baculovirus and purified using standard methods) at 0.1 to 1 nM concentrations is incubated with the test compound at various concentrations for 1 hour at room temperature in 100 mM acetate buffer, pH 4.5, containing 0.1% CHAPS. Activity was measured using a final concentration of 3 μM of the fluorescence-quenched substrate Q-C(HSO3)-Ile-Asp-Leu-Ala-Val-Leu-Asp-HN—CH2—CH2-Mca, where Q=2-nitro-5-amino benzoic acid and Mca=7-methoxy-4-coumarinyl acetic acid. Catalytic turnover was monitored in a Spectramax Gemini fluorescence plate reader (Molecular Devices) in black 96-well microplates using excitation/emission wavelength of 325 nm and 400 nm, respectively. Fluorescence increase was followed for 15 min, in 1 minute's intervals. The fluorescence/time slopes were calculated from duplicate wells and from wells without inhibitor and the IC50 values were calculated using a logistic 4-parameter model.

Human BACE-2 = Human BACE-2 (Homo sapiens (Human), UniProt Q9Y5Z0); assay: Test 2: Inhibition of Human BACE-2; assay type: biochemical; conditions: recombinant BACE-2, pH 4.5, 1 hour preincubation
Procedure: Test 2: Inhibition of Human BACE-2
as §1, with “BACE-2” for “BACE-1”

[1] = Test 4: Inhibition of Cellular Release of Amyloid Peptide 1-40; assay type: cell-based, Chinese hamster; conditions: Cricetulus griseus; CHO cells with human APP, 24 hours with compound; read-out: Test 4 Amyloid-β1-40 release IC50
Procedure: The cells are plated at a density of 8000 cells/well into 96-well microtiter plates and cultivated for 24 hours in DMEM cell culture medium containing 10% FCS. The test compound is added to the cells at various concentrations, and the cells are cultivated for 24 hours in the presence of the test compound. […] The potency of the compound is calculated from the percentage of inhibition of amyloid peptide release as a function of the test compound concentration.

Sequence of Human BACE-2 (Q9Y5Z0 63-473): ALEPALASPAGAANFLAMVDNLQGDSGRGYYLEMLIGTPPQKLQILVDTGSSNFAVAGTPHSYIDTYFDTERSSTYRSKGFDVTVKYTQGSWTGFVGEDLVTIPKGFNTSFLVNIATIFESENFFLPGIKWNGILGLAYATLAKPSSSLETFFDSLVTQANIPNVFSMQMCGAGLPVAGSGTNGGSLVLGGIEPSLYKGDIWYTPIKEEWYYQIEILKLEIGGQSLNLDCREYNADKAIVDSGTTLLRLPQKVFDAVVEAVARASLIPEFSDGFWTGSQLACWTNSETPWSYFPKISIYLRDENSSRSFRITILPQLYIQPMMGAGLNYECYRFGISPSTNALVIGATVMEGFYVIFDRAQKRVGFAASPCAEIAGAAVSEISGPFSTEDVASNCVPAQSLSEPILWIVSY
Sequence of Human BACE-1 (P56817 46-457): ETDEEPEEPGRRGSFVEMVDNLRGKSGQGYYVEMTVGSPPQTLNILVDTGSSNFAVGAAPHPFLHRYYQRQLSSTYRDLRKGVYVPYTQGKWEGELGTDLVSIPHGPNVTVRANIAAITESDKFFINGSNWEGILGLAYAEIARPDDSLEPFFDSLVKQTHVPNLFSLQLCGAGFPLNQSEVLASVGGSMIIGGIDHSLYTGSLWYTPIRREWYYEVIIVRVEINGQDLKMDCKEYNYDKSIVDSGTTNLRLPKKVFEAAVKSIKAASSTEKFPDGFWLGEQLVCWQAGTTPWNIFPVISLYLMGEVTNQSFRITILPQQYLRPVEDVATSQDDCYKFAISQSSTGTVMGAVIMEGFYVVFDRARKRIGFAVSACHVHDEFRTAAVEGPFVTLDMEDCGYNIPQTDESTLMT

Compound | IC50 (Human BACE-1) [nM] | IC50 (Human BACE-2) [nM] | IC50 [1] [nM]
COCC[C@]1(c2nc(NC(=O)c3ncc(C(F)(F)F)cc3Cl)ccc2F)N=C(N)OCC1(F)F [Example 6, 3-Chloro-5-trifluoromethyl-pyridine-2-carboxylic acid {6-[(R)-2-amino-5,5-difluoro-4-(2-methoxy-ethyl)-5,6-dihydro-4H-[1,3]oxazin-4-yl]-5-fluoro-pyridin-2-yl}-amide] | 650 | 6600 | 380
COCC#Cc1cnc(C(=O)Nc2ccc(F)c([C@@]3(C)N=C(N)OCC3(F)F)n2)c(Cl)c1 [Example 21, 3-Chloro-5-(3-methoxy-prop-1-ynyl)pyridine-2-carboxylic acid [6-((R)-2-amino-5,5-difluoro-4-methyl-5,6-dihydro-4H-[1,3]oxazin-4-yl)-5-fluoro-pyridin-2-yl]-amide] | 83 | 840 | 81
COCC#Cc1cnc(C(=O)Nc2ccc(F)c([C@@]3(C)N=C(N)OCC3(F)F)n2)c(N)c1 [Example 14, 3-Amino-5-(3-methoxy-prop-1-ynyl)-pyridine-2-carboxylic acid [6-((R)-2-amino-5,5-difluoro-4-methyl-5,6-dihydro-4H-[1,3]oxazin-4-yl)-5-fluoro-pyridin-2-yl]-amide] | – | – | 540
COCCc1cnc(C(=O)Nc2ccc(F)c([C@@]3(C)N=C(N)OCC3(F)F)n2)c(N)n1 [Example 29, 3-Amino-5-(2-methoxy-ethyl)-pyrazine-2-carboxylic acid [6-((R)-2-amino-5,5-difluoro-4-methyl-5,6-dihydro-4H-[1,3]oxazin-4-yl)-5-fluoro-pyridin-2-yl]-amide] | 150 | 5600 | 70
C[C@]1(c2nc(NC(=O)c3ncc(C(F)F)cc3N)ccc2F)N=C(N)OCC1(F)F [Example 33, 3-Amino-5-difluoromethyl-pyridine-2-carboxylic acid [6-((R)-2-amino-5,5-difluoro-4-methyl-5,6-dihydro-4H-[1,3]oxazin-4-yl)-5-fluoro-pyridin-2-yl]-amide] | 140 | 260 | 66
COc1cnc(C(=O)Nc2ccc(F)c([C@@]3(C)N=C(N)OCC3(F)F)n2)c(C)c1 [Example 13, 5-Methoxy-3-methyl-pyridine-2-carboxylic acid [6-((R)-2-amino-5,5-difluoro-4-methyl-5,6-dihydro-4H-[1,3]oxazin-4-yl)-5-fluoro-pyridin-2-yl]-amide] | – | – | 82
C[C@]1(c2nc(NC(=O)c3ncc(F)cc3N)ccc2F)N=C(N)OCC1(F)F [Example 18, 3-Amino-5-fluoro-pyridine-2-carboxylic acid [6-((R)-2-amino-5,5-difluoro-4-methyl-5,6-dihydro-4H-[1,3]oxazin-4-yl)-5-fluoro-pyridin-2-yl]-amide] | 330 | 120 | 88
C[C@]1(c2nc(NC(=O)c3ncc(C#CCO)cc3Cl)ccc2F)N=C(N)OCC1(F)F [Example 32, 3-Chloro-5-(3-hydroxy-prop-1-ynyl)-pyridine-2-carboxylic acid [6-((R)-2-amino-5,5-difluoro-4-methyl-5,6-dihydro-4H-[1,3]oxazin-4-yl)-5-fluoro-pyridin-2-yl]-amide] | 60 | 930 | 19
C[C@]1(c2nc(NC(=O)c3ncc(Cl)cc3Cl)ccc2F)N=C(N)OCC1(F)F [Example 9, 3,5-Dichloro-pyridine-2-carboxylic acid [6-((R)-2-amino-5,5-difluoro-4-methyl-5,6-dihydro-4H-[1,3]oxazin-4-yl)-5-fluoro-pyridin-2-yl]-amide] | 18 | 4 | 12
C[C@]1(c2nc(NC(=O)c3nccnc3N)ccc2F)N=C(N)OCC1(F)F [Example 31, 3-Amino-pyrazine-2-carboxylic acid [6-((R)-2-amino-5,5-difluoro-4-methyl-5,6-dihydro-4H-[1,3]oxazin-4-yl)-5-fluoro-pyridin-2-yl]-amide] | 540 | 490 | 180
C[C@]1(c2nc(NC(=O)c3ncc(OCCCl)nc3N)ccc2F)N=C(N)OCC1(F)F [Example 23, 3-Amino-5-(2-chloro-ethoxy)-pyrazine-2-carboxylic acid [6-((R)-2-amino-5,5-difluoro-4-methyl-5,6-dihydro-4H-[1,3]oxazin-4-yl)-5-fluoro-pyridin-2-yl]-amide] | 8700 | > 10000 | 2900
Cc1cc(C#N)cnc1C(=O)Nc1ccc(F)c([C@@]2(C)N=C(N)OCC2(F)F)n1 [Example 1, 5-Cyano-3-methyl-pyridine-2-carboxylic acid [6-((R)-2-amino-5,5-difluoro-4-methyl-5,6-dihydro-4H-[1,3]oxazin-4-yl)-5-fluoro-pyridin-2-yl]-amide] | 12 | 66 | 7
[2H]C([2H])([2H])C([2H])([2H])Oc1cnc(C(=O)Nc2ccc(F)c([C@@]3(C)N=C(N)OCC3(F)F)n2)c(N)n1 [Example 28, 3-Amino-5-(penta-deutero-ethoxy)-pyrazine-2-carboxylic acid [6-((R)-2-amino-5,5-difluoro-4-methyl-5,6-dihydro-4H-[1,3]oxazin-4-yl)-5-fluoro-pyridin-2-yl]-amide] | 1900 | 10000 | 840
C[C@]1(c2nc(NC(=O)c3ncc(Cl)cc3N)ccc2F)N=C(N)OCC1(F)F [Example 19, 3-Amino-5-chloro-pyridine-2-carboxylic acid [6-((R)-2-amino-5,5-difluoro-4-methyl-5,6-dihydro-4H-[1,3]oxazin-4-yl)-5-fluoro-pyridin-2-yl]-amide] | 60 | 48 | 45
CCOc1cnc(C(=O)Nc2ccc(F)c([C@@]3(C)N=C(N)OCC3(F)F)n2)c(Cl)c1 [Example 27, 3-Chloro-5-ethoxy-pyridine-2-carboxylic acid [6-((R)-2-amino-5,5-difluoro-4-methyl-5,6-dihydro-4H-[1,3]oxazin-4-yl)-5-fluoro-pyridin-2-yl]-amide] | 290 | 420 | 450
COCC[C@@]1(c2nc(NC(=O)c3ncc(C#N)cc3C)ccc2F)N=C(N)OCC1(F)F [Example 5] | – | – | > 10000
C[C@]1(c2nc(NC(=O)c3ncccc3Cl)ccc2F)N=C(N)OCC1(F)F [Example 20, 3-Chloro-pyridine-2-carboxylic acid [6-((R)-2-amino-5,5-difluoro-4-methyl-5,6-dihydro-4H-[1,3]oxazin-4-yl)-5-fluoro-pyridin-2-yl]-amide] | 360 | 95 | 88
C[C@]1(c2nc(NC(=O)c3ncc(C(F)F)nc3N)ccc2F)N=C(N)OCC1(F)F [Example 22, 3-Amino-5-difluoromethyl-pyrazine-2-carboxylic acid [6-((R)-2-amino-5,5-difluoro-4-methyl-5,6-dihydro-4H-[1,3]oxazin-4-yl)-5-fluoro-pyridin-2-yl]-amide] | 190 | 580 | 60
C[C@]1(c2nc(NC(=O)c3ncc(OCC(F)F)cc3Cl)ccc2F)N=C(N)OCC1(F)F [Example 24, 3-Chloro-5-(2,2-difluoro-ethoxy)-pyridine-2-carboxylic acid [6-((R)-2-amino-5,5-difluoro-4-methyl-5,6-dihydro-4H-[1,3]oxazin-4-yl)-5-fluoro-pyridin-2-yl]-amide] | 240 | 4500 | 250
CC(F)(F)c1cnc(C(=O)Nc2ccc(F)c([C@@]3(C)N=C(N)OCC3(F)F)n2)c(Cl)c1 [Example 36, 3-Chloro-5-(1,1-difluoro-ethyl)-pyridine-2-carboxylic acid [6-((R)-2-amino-5,5-difluoro-4-methyl-5,6-dihydro-4H-[1,3]oxazin-4-yl)-5-fluoro-pyridin-2-yl]-amide] | – | – | 58
COCCOc1cnc(C(=O)Nc2ccc(F)c([C@@]3(C)N=C(N)OCC3(F)F)n2)c(N)n1 [Example 16, 3-Amino-5-(2-methoxy-ethoxy)-pyrazine-2-carboxylic acid [6-((R)-2-amino-5,5-difluoro-4-methyl-5,6-dihydro-4H-[1,3]oxazin-4-yl)-5-fluoro-pyridin-2-yl]amide] | 120 | 8900 | –

From patent publication US9163011B2, “Oxazine derivatives and their use in the treatment of disease” (NOVARTIS AG, priority 2011, dated 2015)
